Values quoted from earlier work as cited in publication PMC8228323, “Biodegradation of L-Valine Alkyl Ester Ibuprofenates by Bacterial Cultures” (Materials, 2021).

Key:
[1] = tested on: microorganisms; design: method as in PMID 22644530, PMID 23262323, doi:10.4314/jasem.v25i3.5, PMID 33724810, PMID 33601200; conditions: at the applied concentration
[2] = design: method as in PMID 20111784; conditions: CO2 released, 0 to 28 days

SMILES	Inhibition of microbial activity [1]	Degree of biodegradability [2]
CC(C)Cc1ccc(C(C)C(=O)O)cc1 (centres unmarked) [IBU, ibuprofen]	did not inhibit the microbial activity	
CCCCCCCCCCCCOS(=O)(=O)[O-].[Na+] [SDS, sodium dodecyl sulfate]		about 95%
CCCCCCCCOS(=O)(=O)[O-].CCCCOCCOC(=O)Cn1cc[n+](C)c1 [[BuOCH2CH2OCOCH2min][OctOSO3]]		more than 60%
CCCCCCCCOS(=O)(=O)[O-].CCOCCOC(=O)Cn1cc[n+](C)c1 [[EtOCH2CH2OCOCH2min][OctOSO3]]		59%
CCCCCCCCOS(=O)(=O)[O-].CCCOCCOC(=O)Cn1cc[n+](C)c1 [[PrOCH2CH2OCOCH2min][OctOSO3]]		more than 60%
